Assay results from patent US20050255071A1, “Preparation having improved therapeutic breadth comprising nucleotide synthesis inhibitors” (Aventis Pharma Deutschland GmbH, priority 1998, published 2005).
Where two headings read alike, the source gives them in different places.

What was measured:
[1] = Alkaline phosphatase and amylase in adjuvant-arthritis rats (Example 3); conditions: rat, in vivo, po, 25 mg/kg
Procedure: (§1) The experimental animals used were male rats of a Lewis strain (Moellegard, Denmark) having a body weight of from 160 to 210 g. On the 1st day, the animals were injected subcutaneously, into the tail root, with complete Freund's adjuvant containing a Mycobacterium butyricum suspension in heavy paraffin oil (Difco, 6 mg/kg in paraffin oil, Merck). The compounds N-(4-trifluoromethylphenyl)-2-cyano-3-hydroxycrotonamide and colestyramine were suspended in carboxymethylcellulose (1% in water), and administered orally. The compounds were administered once daily from the 1st to the 17th day of the experiment; the paw volume and arthritis index were then determined on the 18th day.
The experimental conditions were analogous to Example 1. The actions of compound 1 and colestyramine on the amount on the of alkaline phosphatase (AP) and amylase were determined. Colestyramine was administered 4 hours later than compound 1.

[2] = GOT, GPT, RBC, HGB, HCT in adjuvant-arthritis rats (Example 2); conditions: rat, in vivo, po, 25 mg/kg
Procedure: as §1
The experimental conditions were analogous to Example 1. The actions of compound 1 and colestyramine on the amount of red blood corpuscles (RBC), hemoglobin content (HGB), hematocrit (HCT), amount of glutamate oxlacetate transaminase (GOT), and glutamate pyruvate transaminase (GPT) were determined. Colestyramine was administered 4 hours later than compound 1.

[3] = system: Adjuvant-Induced Arthritis; type: in vivo, rats
Procedure: Adjuvant-Induced Arthritis, Modification According to Perper (Proc. Soc. Exp. Biol. Med. 137, 506 (1971)).
as §1
The severity of the disorder was determined by measuring the paw volume of both hind paws. The measurement was carried out by means of the water displacement method using a 2060 Plethys monitor (Rhema-Labortechnik, Hofheim, Germany). The arthritis index was furthermore determined in the 18th day after injection.
Determination of the arthritis index was scored as follows:
On the first day, animals of an “arthritis control” control group were given a subcutaneous injection, into the tail root, with complete Freund's adjuvant but were given only the solvent (i.e., 1% cabrboxymethylcellulose in water). Six animals in each case were used per dose and in the control group. Untreated animals were employed as a further “healthy control” control group. The activity criteria used were the reduction of the increase in the paw volume and the decrease in the arthritis index, compared with the untreated control group, and the weight of the animals, in each case in percent and based on the arthritis control.
In the following table, N-(4-trifluoromethylphenyl)-2-cyano-3-hydroxycrotonamide is compound 1. Colestyramine was administered 4 hours later than compound 1.

[4] = Blood level and duration of action of compound 1 after time-displaced colestyramine; type: in vivo; conditions: with time-displaced administration of colestyramine (2 hours or 4 hours after compound 1)
From the text: The preparation according to the invention can also include compositions or combination packs in which the constituents are placed next to one another and can therefore be used simultaneously, separately, or sequentially on one and the same human or animal body. The sequential administration of a compound of formula (I) and/or (II) before the administration of a compound, which essentially prevents the enterohepatic circulation of a compound of formula (I) and (II), is preferred. To this end, for example, N-(4-trifluoromethylphenyl)-2-cyano-3-hydroxycrotonamide (called compound 1 in the following) is administered first. Colestyramine, which essentially prevents the enterohepatic circulation of compound 1, is administered with a displacement in time, i.e., 2 hours or 4 hours after the administration of compound 1. Because of the time-displaced administration of compound 1 relative to colestyramine, compound 1 is initially absorbed unhindered from the digestive tract. After the administration of colestyramine, which is not absorbed systemically, compound 1 excreted via the bowel is bound to colestyramine, and cannot therefore be reabsorbed again; as a result, an interruption to the enterohepatic circulation is brought about.

[5] = Example 1, 2.5 mg/kg of live weight oral once daily day 1-17, day 18
[6] = Example 1, 7.5 mg/kg of live weight oral once daily day 1-17, day 18
[7] = Example 1, 25 mg/kg of live weight oral once daily day 1-17, day 18
[8] = Example 2, 25 mg/kg of live weight oral
[9] = Example 3, 25 mg/kg of live weight oral

AP [1]: 114.8 U/I
Amylase [1]: 1306.5 U/I
GOT [2]: 85.3 U/I
GPT [2]: 25.1 U/I
HCT [2]: 18.7%
HGB [2]: 6.1 g/dL
RBC [2]: 3.8 *10^6/mm^3
blood level of compound 1 [4]: drastically reduced
duration of action [4]: drastically reduced
SMILES: C/C(O)=C(\C#N)C(=O)Nc1ccc(C(F)(F)F)cc1 [Compound 1, N-(4-trifluoromethylphenyl)-2-cyano-3-hydroxycrotonamide]
desired actions on the immune system ([3]; 25 mg/kg/day of compound 1, with administration of colestyramine): retention
Arthritis index [3, 5]: −77%
Paw Volume [3, 5]: −63%
Arthritis index [3, 6]: −92%
Paw Volume [3, 6]: −83%
Arthritis index [3, 7]: −100%
Paw Volume [3, 7]: −92%
Arthritis index [3, 8]: −100%
Paw Volume [3, 8]: −92%
Arthritis index [3, 9]: −100%
Paw Volume [3, 9]: −110%
activity in adjuvant arthritis ([3]; approximately 2.5 mg/kg/day of compound 1, with administration of colestyramine): not reduced
